Measurements from the CheMixHub viscosity set.
± gives the uncertainty stated by the source.

Test: xn = mol fraction of the nth substance listed

Cn1cc[n+](CCCC#N)c1.O=S(=O)([O-])C(F)(F)F + CC#N
Conditions	viscosity [mPa·s]
298.15 K, 101 kPa, x1 = 0.7996	306.5 ± 19

CNC(C)=O + CC(=O)c1ccccc1
308.15 K, 101 kPa
Conditions	viscosity [mPa·s]
x2 = 0.0686	3.109 ± 0.036
x2 = 0.138	2.919 ± 0.034
x2 = 0.2189	2.657 ± 0.031
x2 = 0.3143	2.397 ± 0.028
x2 = 0.3938	2.199 ± 0.026
x2 = 0.4912	1.965 ± 0.024
x2 = 0.6042	1.747 ± 0.022
x2 = 0.7227	1.561 ± 0.021
x2 = 0.8517	1.455 ± 0.02

CNC(C)=O + CC(C)(C)O
303.15 K, 101 kPa
Conditions	viscosity [mPa·s]
x1 = 0.0809	4.253 ± 0.11
x1 = 0.1017	4.365 ± 0.12
x1 = 0.2071	4.448 ± 0.12
x1 = 0.3102	4.22 ± 0.11
x1 = 0.4103	4.026 ± 0.11
x1 = 0.5002	3.864 ± 0.1
x1 = 0.6021	3.776 ± 0.1
x1 = 0.7095	3.752 ± 0.1
x1 = 0.8039	3.747 ± 0.1
x1 = 0.9007	3.778 ± 0.1

CC(C)CCO + CC(C)CC(C)(C)C
298.15 K, 101 kPa
Conditions	viscosity [mPa·s]
x2 = 0.0685	3.063 ± 0.08
x2 = 0.1336	2.496 ± 0.062
x2 = 0.1409	2.428 ± 0.06
x2 = 0.2215	1.908 ± 0.045
x2 = 0.2866	1.576 ± 0.035
x2 = 0.311	1.471 ± 0.033
x2 = 0.352	1.326 ± 0.029
x2 = 0.4007	1.178 ± 0.025
x2 = 0.4038	1.175 ± 0.025
x2 = 0.4505	1.051 ± 0.022
x2 = 0.4937	0.967 ± 0.02
x2 = 0.5321	0.896 ± 0.019
x2 = 0.6132	0.772 ± 0.016
x2 = 0.6488	0.723 ± 0.015
x2 = 0.7255	0.642 ± 0.014
x2 = 0.782	0.595 ± 0.013
x2 = 0.818	0.564 ± 0.013
x2 = 0.857	0.544 ± 0.013
x2 = 0.9105	0.512 ± 0.012
x2 = 0.9545	0.494 ± 0.012

CCOCCO + CC(C)CC(C)(C)C
viscosity [mPa·s], 101.33 kPa
Conditions	x1 = 0.0991	x1 = 0.1991	x1 = 0.2975	x1 = 0.4347	x1 = 0.4972	x1 = 0.6001	x1 = 0.6976	x1 = 0.7979	x1 = 0.8986
298.15 K	0.494 ± 0.014	0.536 ± 0.015	0.595 ± 0.016	0.692 ± 0.018	0.753 ± 0.019	0.862 ± 0.022	1.006 ± 0.025	1.179 ± 0.029	1.436 ± 0.034
303.15 K	0.466 ± 0.013	0.5 ± 0.014	0.552 ± 0.015	0.648 ± 0.017	0.694 ± 0.018	0.797 ± 0.02	0.913 ± 0.023	1.086 ± 0.027	1.292 ± 0.031
308.15 K	0.439 ± 0.013	0.475 ± 0.013	0.517 ± 0.014	0.601 ± 0.016	0.642 ± 0.017	0.738 ± 0.019	0.839 ± 0.021	0.993 ± 0.025	1.167 ± 0.028
313.15 K	0.415 ± 0.012	0.445 ± 0.013	0.483 ± 0.014	0.56 ± 0.015	0.597 ± 0.016	0.677 ± 0.018	0.767 ± 0.02	0.901 ± 0.023	1.066 ± 0.026

CC(C)CCO + CC(C)CO
viscosity [mPa·s], 101 kPa
Conditions	x1 = 0.2	x1 = 0.4	x1 = 0.6	x1 = 0.8
293.15 K	4.048 ± 0.04	4.099 ± 0.04	4.163 ± 0.041	4.241 ± 0.041
313.15 K	2.178 ± 0.024	2.22 ± 0.024	2.27 ± 0.025	2.326 ± 0.025

CC(C)CCO + CC(C)O
298.15 K, 101 kPa
Conditions	viscosity [mPa·s]
x1 = 0.0665	2.158 ± 0.026
x1 = 0.095	2.195 ± 0.051
x1 = 0.1475	2.277 ± 0.054
x1 = 0.1504	2.279 ± 0.029
x1 = 0.2352	2.411 ± 0.058
x1 = 0.2364	2.41 ± 0.033
x1 = 0.3228	2.562 ± 0.063
x1 = 0.3304	2.572 ± 0.039
x1 = 0.4092	2.707 ± 0.069
x1 = 0.4193	2.736 ± 0.045
x1 = 0.5069	2.896 ± 0.076
x1 = 0.5352	2.948 ± 0.054
x1 = 0.6126	3.093 ± 0.085
x1 = 0.6388	3.125 ± 0.063
x1 = 0.7326	3.271 ± 0.096
x1 = 0.7853	3.365 ± 0.077
x1 = 0.8525	3.477 ± 0.11
x1 = 0.9466	3.651 ± 0.12

CCOCCO + CC(C)O
viscosity [mPa·s], 101.33 kPa
Conditions	x1 = 0.1024	x1 = 0.2002	x1 = 0.301	x1 = 0.4035	x1 = 0.5037	x1 = 0.6022	x1 = 0.6984	x1 = 0.8009	x1 = 0.9017
298.15 K	1.858 ± 0.012	1.764 ± 0.012	1.703 ± 0.011	1.692 ± 0.011	1.682 ± 0.012	1.693 ± 0.012	1.711 ± 0.012	1.756 ± 0.012	1.773 ± 0.012
303.15 K	1.614 ± 0.011	1.54 ± 0.01	1.495 ± 0.01	1.49 ± 0.01	1.491 ± 0.01	1.504 ± 0.01	1.518 ± 0.011	1.566 ± 0.011	1.575 ± 0.011
308.15 K	1.404 ± 0.009	1.356 ± 0.009	1.324 ± 0.009	1.325 ± 0.009	1.329 ± 0.009	1.34 ± 0.009	1.36 ± 0.01	1.398 ± 0.01	1.413 ± 0.01
313.15 K	1.233 ± 0.008	1.19 ± 0.008	1.17 ± 0.008	1.176 ± 0.008	1.19 ± 0.008	1.203 ± 0.009	1.217 ± 0.009	1.259 ± 0.009	1.267 ± 0.009

CNC(C)=O + CC(C)O
303.15 K, 101 kPa
Conditions	viscosity [mPa·s]
x1 = 0.11	1.922 ± 0.051
x1 = 0.2078	2.005 ± 0.053
x1 = 0.3061	2.099 ± 0.055
x1 = 0.3988	2.217 ± 0.059
x1 = 0.4962	2.377 ± 0.063
x1 = 0.5547	2.49 ± 0.066
x1 = 0.6962	2.824 ± 0.075
x1 = 0.8005	3.115 ± 0.083
x1 = 0.8927	3.418 ± 0.091

CCOCCO + CCC(C)=O
298.15 K, 101 kPa
Conditions	viscosity [mPa·s]
x2 = 0.1219	1.479 ± 0.01
x2 = 0.2381	1.178 ± 0.008
x2 = 0.3488	0.948 ± 0.007
x2 = 0.4545	0.767 ± 0.005
x2 = 0.5555	0.609 ± 0.004
x2 = 0.6521	0.524 ± 0.004
x2 = 0.7446	0.457 ± 0.003
x2 = 0.8333	0.419 ± 0.003
x2 = 0.9183	0.387 ± 0.003

Cc1ccc(NC(=O)NCCCCCCCCCCCCCCC(C)C)cc1NC(=O)NCCCCCCCCCCCCCCC(C)C + CCCCC
Conditions	viscosity [mPa·s]
293.15 K, 100 kPa, x1 = 0.0001	2 ± 0.1

CC(CC(C)(C)C)CP(=O)(O)CC(C)CC(C)(C)C (centres undefined) + CCCCCC
298.15 K, 101 kPa
Conditions	viscosity [mPa·s]
x1 = 0.0033	0.305 ± 0.004
x1 = 0.0159	0.36 ± 0.005
x1 = 0.0175	0.368 ± 0.005
x2 = 0.0987	89.32 ± 1.3
x2 = 0.1765	69.68 ± 0.89
x2 = 0.2746	47.91 ± 0.58
x2 = 0.4476	23.62 ± 0.29
x2 = 0.642	9.432 ± 0.12
x2 = 0.7262	5.982 ± 0.073
x2 = 0.73	5.931 ± 0.073
x2 = 0.796	3.39 ± 0.042
x2 = 0.8384	2.461 ± 0.031
x2 = 0.8555	2.122 ± 0.026
x2 = 0.9097	1.221 ± 0.015
x2 = 0.9111	1.203 ± 0.015
x2 = 0.9623	0.504 ± 0.007

CCCCCCCCCCOC(C)=O + CCCCCC
303.15 K, 101.3 kPa
Conditions	viscosity [mPa·s]
x1 = 0.2001	0.4713 ± 0.0034
x1 = 0.4057	0.7528 ± 0.0053
x1 = 0.5086	0.9289 ± 0.0065
x1 = 0.5995	1.116 ± 0.0079
x1 = 0.7551	1.473 ± 0.011

CCOCCO + CCCCCC
viscosity [mPa·s], 101.33 kPa
Conditions	x1 = 0.0967	x1 = 0.1963	x1 = 0.2958	x1 = 0.394	x1 = 0.4948	x1 = 0.5958	x1 = 0.6979	x1 = 0.7955	x1 = 0.8993
298.15 K	0.335 ± 0.01	0.376 ± 0.011	0.433 ± 0.013	0.504 ± 0.014	0.595 ± 0.016	0.716 ± 0.019	0.875 ± 0.022	1.087 ± 0.027	1.452 ± 0.035
303.15 K	0.318 ± 0.01	0.357 ± 0.011	0.406 ± 0.012	0.472 ± 0.013	0.554 ± 0.015	0.663 ± 0.018	0.803 ± 0.021	0.987 ± 0.025	1.315 ± 0.032
308.15 K	0.303 ± 0.01	0.339 ± 0.011	0.385 ± 0.012	0.443 ± 0.013	0.517 ± 0.014	0.615 ± 0.017	0.741 ± 0.019	0.907 ± 0.023	1.199 ± 0.029
313.15 K	0.29 ± 0.009	0.322 ± 0.01	0.361 ± 0.011	0.415 ± 0.012	0.484 ± 0.014	0.573 ± 0.016	0.686 ± 0.018	0.829 ± 0.021	1.083 ± 0.027
